# Test results published in PubChem BioAssay (NCI).
# Values joined by “and” are separate entries in the source; they are usually repeats but may differ in a detail not shown here. Equal values may be shown once.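 Test compounds were applied to cells in 96-well plates for 48 hours at 5 doses. The concentration for 50% growth inhibition is given as GI50. TGI marks complete inhibition of growth.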
# Assays:
# Assay in all cases: NCI tumour cell line growth inhibition, 48 h
# TK-10 renal = tested on: TK-10 renal
# COLO 205 colon = tested on: COLO 205 colon
# IGROV1 ovarian = tested on: IGROV1 ovarian
# MOLT-4 leukemia = tested on: MOLT-4 leukemia
# SK-MEL-5 melanoma = tested on: SK-MEL-5 melanoma
# HCT-116 colon = tested on: HCT-116 colon
# KM20L2 colon = tested on: KM20L2 colon
# ACHN renal = tested on: ACHN renal
# RXF 393 renal = tested on: RXF 393 renal
# A549 NSCLC = tested on: A549 NSCLC
# SF-268 CNS = tested on: SF-268 CNS
# OVCAR-5 ovarian = tested on: OVCAR-5 ovarian
# NCI-H522 lung = tested on: NCI-H522 lung
# HOP-18 NSCLC = tested on: HOP-18 NSCLC
# P388/ADR leukemia = tested on: P388/ADR leukemia
# OVCAR-3 ovarian = tested on: OVCAR-3 ovarian
# MDA-MB-231 breast = tested on: MDA-MB-231 breast
# MCF7 breast = tested on: MCF7 breast
# NCI-H226 lung = tested on: NCI-H226 lung
# DU-145 prostate = tested on: DU-145 prostate
# CCRF-CEM leukemia = tested on: CCRF-CEM leukemia
# PC-3 prostate = tested on: PC-3 prostate
# RXF-631 renal = tested on: RXF-631 renal
# P388 leukemia = tested on: P388 leukemia
# LXFL 529 NSCLC = tested on: LXFL 529 NSCLC
# HOP-92 NSCLC = tested on: HOP-92 NSCLC
# LOX IMVI melanoma = tested on: LOX IMVI melanoma
# MDA-MB-435 = tested on: MDA-MB-435
# UACC-257 melanoma = tested on: UACC-257 melanoma
# SR leukemia = tested on: SR leukemia
# MALME-3M melanoma = tested on: MALME-3M melanoma
# MDA-N = tested on: MDA-N
# HS 578T breast = tested on: HS 578T breast
# A498 renal = tested on: A498 renal
# UO-31 renal = tested on: UO-31 renal
# DMS 114 small cell lung = tested on: DMS 114 small cell lung
# T-47D breast = tested on: T-47D breast
# NCI/ADR-RES ovarian = tested on: NCI/ADR-RES ovarian
# NCI-H460 lung = tested on: NCI-H460 lung
# SK-OV-3 ovarian = tested on: SK-OV-3 ovarian
# SF-295 CNS = tested on: SF-295 CNS
# KM12 colon = tested on: KM12 colon
# OVCAR-4 ovarian = tested on: OVCAR-4 ovarian
# UACC-62 melanoma = tested on: UACC-62 melanoma
# U251 CNS = tested on: U251 CNS
# M19-MEL melanoma = tested on: M19-MEL melanoma
# SW-620 colon = tested on: SW-620 colon
# HCT-15 colon = tested on: HCT-15 colon
# 786-0 renal = tested on: 786-0 renal
# SF-539 CNS = tested on: SF-539 CNS
# K-562 leukemia = tested on: K-562 leukemia
# HL-60(TB) leukemia = tested on: HL-60(TB) leukemia
# SK-MEL-2 melanoma = tested on: SK-MEL-2 melanoma
# DLD-1 colon = tested on: DLD-1 colon
# SK-MEL-28 melanoma = tested on: SK-MEL-28 melanoma
# DMS 273 small cell lung = tested on: DMS 273 small cell lung
# XF 498 CNS = tested on: XF 498 CNS
# OVCAR-8 ovarian = tested on: OVCAR-8 ovarian
# BT-549 breast = tested on: BT-549 breast
# HT29 colon = tested on: HT29 colon
# M14 melanoma = tested on: M14 melanoma
# CAKI-1 renal = tested on: CAKI-1 renal
# RPMI-8226 leukemia = tested on: RPMI-8226 leukemia
# SN12K1 renal = tested on: SN12K1 renal
compound,measurement,setting,value
O=C(O)CCCc1ccc(N(CCCl)CCCl)cc1,GI50,TK-10 renal,25.4 µM and 81.4 µM
same,TGI,TK-10 renal,70.8 µM and 471 µM and 221 µM
same,GI50,COLO 205 colon,22.6 µM and 201 µM
same,TGI,COLO 205 colon,45.9 µM and 271 µM and 333 µM
same,GI50,IGROV1 ovarian,30.5 µM and 158 µM
same,TGI,IGROV1 ovarian,65.3 µM and 352 µM and 321 µM
same,GI50,MOLT-4 leukemia,0.999 µM
same,TGI,MOLT-4 leukemia,12.7 µM and 104 µM
same,GI50,SK-MEL-5 melanoma,20.3 µM and 110 µM
same,TGI,SK-MEL-5 melanoma,39.5 µM and 210 µM and 225 µM
same,GI50,HCT-116 colon,23 µM and 144 µM
same,TGI,HCT-116 colon,63 µM and 389 µM and 328 µM
same,GI50,KM20L2 colon,27.8 µM
same,TGI,KM20L2 colon,60.9 µM and 379 µM
same,GI50,ACHN renal,4.21 µM
same,TGI,ACHN renal,30.3 µM and 180 µM
same,GI50,RXF 393 renal,9.53 µM and 57.7 µM
same,TGI,RXF 393 renal,23 µM and 118 µM and 97.7 µM
same,GI50,A549 NSCLC,12.7 µM and > 89.5 µM
same,TGI,A549 NSCLC,> 92.2 µM and 633 µM and 621 µM
same,GI50,SF-268 CNS,4.91 µM
same,TGI,SF-268 CNS,23.7 µM and 220 µM and 169 µM
same,GI50,OVCAR-5 ovarian,20.6 µM and 173 µM
same,TGI,OVCAR-5 ovarian,45.4 µM and 274 µM and 374 µM
same,TGI,NCI-H522 lung,13.1 µM and 100 µM and 99.4 µM
same,GI50,HOP-18 NSCLC,17.7 µM
same,TGI,HOP-18 NSCLC,> 70 µM and 267 µM
same,TGI,P388/ADR leukemia,154 µM
same,GI50,OVCAR-3 ovarian,18.1 µM and 133 µM
same,TGI,OVCAR-3 ovarian,56.7 µM and 322 µM and 209 µM
same,GI50,MDA-MB-231 breast,265 µM
same,TGI,MDA-MB-231 breast,334 µM and 606 µM
same,TGI,MCF7 breast,379 µM and 431 µM
same,GI50,NCI-H226 lung,16.1 µM and 120 µM
same,TGI,NCI-H226 lung,42.4 µM and 276 µM and 362 µM
same,GI50,DU-145 prostate,41.7 µM
same,TGI,DU-145 prostate,590 µM and 191 µM
same,GI50,CCRF-CEM leukemia,0.881 µM
same,TGI,CCRF-CEM leukemia,34.2 µM and 170 µM and 18.6 µM
same,GI50,PC-3 prostate,210 µM
same,TGI,PC-3 prostate,416 µM and 609 µM
same,GI50,RXF-631 renal,19.7 µM
same,TGI,RXF-631 renal,47.7 µM and 277 µM
same,TGI,P388 leukemia,135 µM
same,GI50,LXFL 529 NSCLC,19.5 µM
same,TGI,LXFL 529 NSCLC,35.4 µM and 199 µM
same,GI50,HOP-92 NSCLC,25.2 µM and 99.1 µM
same,TGI,HOP-92 NSCLC,46.6 µM and 199 µM and 175 µM
same,TGI,LOX IMVI melanoma,31.9 µM and 183 µM and 265 µM
same,GI50,MDA-MB-435,173 µM
same,TGI,MDA-MB-435,270 µM and 242 µM
same,GI50,UACC-257 melanoma,26 µM and 148 µM
same,TGI,UACC-257 melanoma,60.7 µM and 298 µM and 306 µM
same,GI50,SR leukemia,0.922 µM
same,GI50,MALME-3M melanoma,10.3 µM and 97.8 µM
same,TGI,MALME-3M melanoma,26.3 µM and 188 µM and 141 µM
same,GI50,MDA-N,194 µM
same,TGI,MDA-N,271 µM and 325 µM
same,TGI,HS 578T breast,570 µM and 312 µM
same,GI50,A498 renal,28.3 µM
same,TGI,A498 renal,48.4 µM and 302 µM
same,GI50,UO-31 renal,9.38 µM and 32 µM
same,TGI,UO-31 renal,34.7 µM and 272 µM and 56.2 µM
same,GI50,DMS 114 small cell lung,7.84 µM
same,TGI,DMS 114 small cell lung,32.4 µM and 179 µM
same,GI50,T-47D breast,27.3 µM
same,TGI,T-47D breast,333 µM and 292 µM
same,GI50,NCI/ADR-RES ovarian,39.4 µM
same,TGI,NCI/ADR-RES ovarian,329 µM and 118 µM
same,GI50,NCI-H460 lung,2.13 µM
same,TGI,NCI-H460 lung,44.5 µM and 228 µM
same,GI50,SK-OV-3 ovarian,20.4 µM and 196 µM
same,TGI,SK-OV-3 ovarian,52 µM and 402 µM and 498 µM
same,GI50,SF-295 CNS,11.7 µM and 64.6 µM
same,TGI,KM12 colon,57.8 µM and 351 µM and 485 µM
same,GI50,OVCAR-4 ovarian,24.7 µM and 185 µM
same,TGI,OVCAR-4 ovarian,43.5 µM and 327 µM and 284 µM
same,TGI,UACC-62 melanoma,23.1 µM and 106 µM and 202 µM
same,TGI,U251 CNS,29.9 µM and 219 µM and 251 µM
same,GI50,M19-MEL melanoma,22.3 µM
same,TGI,M19-MEL melanoma,51.8 µM and 238 µM
same,GI50,SW-620 colon,13.8 µM and 107 µM
same,TGI,SW-620 colon,51.4 µM and 356 µM and 399 µM
same,GI50,HCT-15 colon,29.6 µM and 117 µM
same,TGI,HCT-15 colon,> 76.3 µM and 307 µM and 239 µM
same,GI50,786-0 renal,7.67 µM and 35.7 µM
same,TGI,786-0 renal,28.4 µM and 181 µM and 133 µM
same,GI50,SF-539 CNS,7.28 µM and 18.2 µM
same,TGI,SF-539 CNS,26.9 µM and 99.4 µM and 89.6 µM
same,GI50,K-562 leukemia,21.7 µM and 152 µM
same,TGI,K-562 leukemia,88.5 µM and 462 µM and 625 µM
same,GI50,HL-60(TB) leukemia,0.979 µM
same,TGI,HL-60(TB) leukemia,21.2 µM and 121 µM
same,GI50,SK-MEL-2 melanoma,31.8 µM and 270 µM
same,TGI,SK-MEL-2 melanoma,52 µM and 314 µM and 344 µM
same,GI50,DLD-1 colon,24.3 µM
same,TGI,DLD-1 colon,54.8 µM and 280 µM
same,GI50,SK-MEL-28 melanoma,21.5 µM
same,TGI,SK-MEL-28 melanoma,42.1 µM and 267 µM
same,GI50,DMS 273 small cell lung,3.84 µM
same,TGI,DMS 273 small cell lung,28 µM and 161 µM
same,GI50,XF 498 CNS,12.1 µM
same,TGI,XF 498 CNS,31.9 µM and 158 µM
same,GI50,OVCAR-8 ovarian,17.5 µM and 68 µM
same,TGI,OVCAR-8 ovarian,57.8 µM and 366 µM and 159 µM
same,TGI,BT-549 breast,290 µM and 289 µM
same,GI50,HT29 colon,19.9 µM and 173 µM
same,TGI,HT29 colon,59.3 µM and 486 µM and 518 µM
same,GI50,M14 melanoma,14.9 µM and 91.3 µM
same,GI50,CAKI-1 renal,5.86 µM
same,TGI,CAKI-1 renal,28.1 µM and 146 µM and 247 µM
same,GI50,RPMI-8226 leukemia,13 µM
same,TGI,RPMI-8226 leukemia,81.1 µM and 447 µM and 335 µM
same,TGI,SN12K1 renal,238 µM
